Data published in ChEMBL document CHEMBL1152560, “Substituted 2-arylbenzothiazoles as kinase inhibitors: hit-to-lead optimization” (Bioorg Med Chem, 2009).

Legend:
[1] = target: Cyclin-dependent kinase 5/CDK5 activator 1 (Homo sapiens) (UniProt Q00535+Q15078); assay: Residual activity of CDK5/p35NCK at 1 uM by microplate scintillation counting; type: protein-complex assay
[2] = tested on: T1, Dual specificity mitogen-activated protein kinase kinase 6 (Homo sapiens), P52564 [S207D,T211D]; assay: Residual activity of MKK6 S207D/T211D mutant at 1 uM by microplate scintillation counting
T1 sequence (whole entry): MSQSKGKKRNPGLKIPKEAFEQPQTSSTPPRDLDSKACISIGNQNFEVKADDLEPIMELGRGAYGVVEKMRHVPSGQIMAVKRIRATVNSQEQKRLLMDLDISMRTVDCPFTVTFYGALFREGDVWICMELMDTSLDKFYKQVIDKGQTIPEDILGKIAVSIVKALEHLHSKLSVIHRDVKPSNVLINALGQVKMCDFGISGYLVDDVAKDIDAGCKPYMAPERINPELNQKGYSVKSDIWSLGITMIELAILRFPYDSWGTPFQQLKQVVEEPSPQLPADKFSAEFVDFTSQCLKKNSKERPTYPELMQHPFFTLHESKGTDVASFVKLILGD

[3] = target: BDNF/NT-3 growth factors receptor (Homo sapiens) (UniProt Q16620); assay: Residual activity of TRK-B at 0.1 uM by microplate scintillation counting
[4] = target: CDK8/Cyclin C (Homo sapiens) (UniProt P49336+P24863); assay: Residual activity of CDK8/Cyclin C at 0.1 uM by microplate scintillation counting; type: protein-complex assay
[5] = tested on: T2, Receptor-type tyrosine-protein kinase FLT3 (Homo sapiens), P36888 [D835Y]; assay: Residual activity of FLT3 D835Y mutant at 10 uM by microplate scintillation counting
T2 sequence (whole entry): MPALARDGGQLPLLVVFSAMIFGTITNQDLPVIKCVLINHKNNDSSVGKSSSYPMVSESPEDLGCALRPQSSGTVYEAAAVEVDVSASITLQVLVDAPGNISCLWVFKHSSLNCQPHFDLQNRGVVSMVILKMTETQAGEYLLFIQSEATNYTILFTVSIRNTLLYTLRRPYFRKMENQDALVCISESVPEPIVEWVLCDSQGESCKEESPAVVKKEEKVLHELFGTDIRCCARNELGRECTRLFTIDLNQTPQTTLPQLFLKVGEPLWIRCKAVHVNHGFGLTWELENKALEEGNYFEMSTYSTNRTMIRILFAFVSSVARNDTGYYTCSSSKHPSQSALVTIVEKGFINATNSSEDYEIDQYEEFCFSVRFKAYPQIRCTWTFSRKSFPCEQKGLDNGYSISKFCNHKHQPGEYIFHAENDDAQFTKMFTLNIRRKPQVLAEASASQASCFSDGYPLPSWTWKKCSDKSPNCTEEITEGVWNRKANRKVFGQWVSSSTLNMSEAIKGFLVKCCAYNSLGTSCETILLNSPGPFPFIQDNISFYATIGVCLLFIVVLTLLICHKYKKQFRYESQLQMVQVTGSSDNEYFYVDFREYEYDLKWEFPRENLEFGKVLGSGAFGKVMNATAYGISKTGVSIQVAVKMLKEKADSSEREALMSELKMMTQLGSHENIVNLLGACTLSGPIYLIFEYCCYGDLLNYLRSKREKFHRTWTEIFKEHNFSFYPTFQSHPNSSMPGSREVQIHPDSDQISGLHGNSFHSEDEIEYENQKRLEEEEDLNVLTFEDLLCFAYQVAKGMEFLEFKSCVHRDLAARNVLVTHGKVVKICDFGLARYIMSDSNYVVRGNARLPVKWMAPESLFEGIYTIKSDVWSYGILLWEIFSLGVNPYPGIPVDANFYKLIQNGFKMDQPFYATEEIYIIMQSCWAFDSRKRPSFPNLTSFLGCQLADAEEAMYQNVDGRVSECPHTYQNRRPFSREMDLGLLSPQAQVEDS

[6] = target: Tyrosine-protein kinase SYK (Homo sapiens) (UniProt P43405); assay: Residual activity of SYK at 1 uM by microplate scintillation counting
[7] = Residual activity of PKA at 10 uM by microplate scintillation counting
[8] = target: Activated CDC42 kinase 1 (Homo sapiens) (UniProt Q07912); assay: Residual activity of ACK1 at 0.1 uM by microplate scintillation counting
[9] = target: Casein kinase II subunit alpha' (Homo sapiens) (UniProt P19784); assay: Residual activity of CK2alpha2 at 10 uM by microplate scintillation counting
[10] = target: T3, Serine/threonine-protein kinase Nek11 (Homo sapiens) (UniProt Q8NG66); assay: Residual activity of NEK11 at 10 uM by microplate scintillation counting
T3 sequence (whole entry): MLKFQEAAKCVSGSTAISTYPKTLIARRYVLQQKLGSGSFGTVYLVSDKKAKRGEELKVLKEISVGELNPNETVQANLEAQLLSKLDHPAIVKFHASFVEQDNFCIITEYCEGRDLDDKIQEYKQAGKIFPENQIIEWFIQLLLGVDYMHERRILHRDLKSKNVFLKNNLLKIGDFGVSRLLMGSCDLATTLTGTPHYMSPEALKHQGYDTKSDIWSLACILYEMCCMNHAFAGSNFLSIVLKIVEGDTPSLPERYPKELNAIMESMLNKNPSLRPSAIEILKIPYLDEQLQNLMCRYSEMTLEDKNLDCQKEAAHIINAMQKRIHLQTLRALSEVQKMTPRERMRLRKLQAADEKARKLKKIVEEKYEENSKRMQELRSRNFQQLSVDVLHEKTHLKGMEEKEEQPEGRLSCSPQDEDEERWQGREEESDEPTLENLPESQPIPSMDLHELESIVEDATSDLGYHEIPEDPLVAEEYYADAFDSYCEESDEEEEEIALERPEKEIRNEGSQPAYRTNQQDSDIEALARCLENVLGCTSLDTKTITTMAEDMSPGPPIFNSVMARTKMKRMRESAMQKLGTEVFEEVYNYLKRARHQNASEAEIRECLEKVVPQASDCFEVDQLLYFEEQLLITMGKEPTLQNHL

Sequence of Casein kinase II subunit alpha' (Homo sapiens) (P19784 whole entry, looked up): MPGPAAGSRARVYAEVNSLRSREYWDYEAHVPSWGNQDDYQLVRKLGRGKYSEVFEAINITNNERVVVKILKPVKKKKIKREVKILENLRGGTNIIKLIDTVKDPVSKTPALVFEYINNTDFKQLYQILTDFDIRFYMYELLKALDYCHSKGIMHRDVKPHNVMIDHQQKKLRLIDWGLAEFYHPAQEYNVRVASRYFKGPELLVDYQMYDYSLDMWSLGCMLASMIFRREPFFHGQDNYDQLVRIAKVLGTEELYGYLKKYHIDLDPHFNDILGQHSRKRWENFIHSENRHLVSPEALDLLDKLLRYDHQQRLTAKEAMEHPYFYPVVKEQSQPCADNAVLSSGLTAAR
Sequence of Activated CDC42 kinase 1 (Homo sapiens) (Q07912 whole entry, looked up): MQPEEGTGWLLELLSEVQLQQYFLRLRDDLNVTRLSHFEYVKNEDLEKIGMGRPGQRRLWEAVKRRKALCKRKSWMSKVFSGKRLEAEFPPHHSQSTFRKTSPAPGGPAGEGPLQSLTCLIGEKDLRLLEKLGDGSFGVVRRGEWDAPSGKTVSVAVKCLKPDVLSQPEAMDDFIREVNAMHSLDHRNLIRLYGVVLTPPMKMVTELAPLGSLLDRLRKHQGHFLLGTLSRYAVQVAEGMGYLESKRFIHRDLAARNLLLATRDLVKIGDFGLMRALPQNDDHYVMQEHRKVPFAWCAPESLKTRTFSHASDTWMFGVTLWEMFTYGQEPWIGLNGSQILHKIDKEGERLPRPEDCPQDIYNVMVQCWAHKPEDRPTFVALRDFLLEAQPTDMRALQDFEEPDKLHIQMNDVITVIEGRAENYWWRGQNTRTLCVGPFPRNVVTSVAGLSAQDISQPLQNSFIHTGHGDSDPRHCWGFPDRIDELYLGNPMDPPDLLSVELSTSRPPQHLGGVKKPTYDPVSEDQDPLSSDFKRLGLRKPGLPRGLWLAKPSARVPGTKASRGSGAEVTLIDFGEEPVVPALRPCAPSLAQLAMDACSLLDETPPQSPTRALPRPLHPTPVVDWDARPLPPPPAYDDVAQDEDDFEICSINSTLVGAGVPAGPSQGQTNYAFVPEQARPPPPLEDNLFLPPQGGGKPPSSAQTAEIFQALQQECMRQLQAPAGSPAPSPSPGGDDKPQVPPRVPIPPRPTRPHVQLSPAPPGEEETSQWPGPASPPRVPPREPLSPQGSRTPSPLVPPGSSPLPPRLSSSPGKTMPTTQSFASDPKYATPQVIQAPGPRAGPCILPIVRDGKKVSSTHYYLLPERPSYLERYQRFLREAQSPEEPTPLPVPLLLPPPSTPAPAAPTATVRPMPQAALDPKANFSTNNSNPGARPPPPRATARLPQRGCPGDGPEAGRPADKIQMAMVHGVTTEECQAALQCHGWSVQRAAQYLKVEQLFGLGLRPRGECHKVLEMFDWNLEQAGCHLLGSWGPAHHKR
Sequence of Cyclin-dependent kinase 5/CDK5 activator 1 (Homo sapiens) (Q00535 whole entry): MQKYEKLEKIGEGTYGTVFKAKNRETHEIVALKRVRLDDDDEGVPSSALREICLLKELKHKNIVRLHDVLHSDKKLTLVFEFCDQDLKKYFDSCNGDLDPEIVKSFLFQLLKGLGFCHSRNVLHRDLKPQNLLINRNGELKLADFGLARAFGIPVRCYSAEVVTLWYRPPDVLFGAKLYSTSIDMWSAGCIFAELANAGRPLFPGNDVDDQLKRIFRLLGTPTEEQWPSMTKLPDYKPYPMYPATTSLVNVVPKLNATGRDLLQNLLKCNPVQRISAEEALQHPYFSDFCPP
Sequence of Cyclin-dependent kinase 5/CDK5 activator 1 (Homo sapiens) (Q15078 99-307 partner limits assumed): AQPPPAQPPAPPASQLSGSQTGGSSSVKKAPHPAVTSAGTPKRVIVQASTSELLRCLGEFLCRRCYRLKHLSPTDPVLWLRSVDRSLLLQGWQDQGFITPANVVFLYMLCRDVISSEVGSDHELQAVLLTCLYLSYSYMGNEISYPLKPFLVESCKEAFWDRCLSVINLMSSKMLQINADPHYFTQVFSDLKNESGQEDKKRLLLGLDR
Sequence of BDNF/NT-3 growth factors receptor (Homo sapiens) (Q16620 32-822 limits assumed): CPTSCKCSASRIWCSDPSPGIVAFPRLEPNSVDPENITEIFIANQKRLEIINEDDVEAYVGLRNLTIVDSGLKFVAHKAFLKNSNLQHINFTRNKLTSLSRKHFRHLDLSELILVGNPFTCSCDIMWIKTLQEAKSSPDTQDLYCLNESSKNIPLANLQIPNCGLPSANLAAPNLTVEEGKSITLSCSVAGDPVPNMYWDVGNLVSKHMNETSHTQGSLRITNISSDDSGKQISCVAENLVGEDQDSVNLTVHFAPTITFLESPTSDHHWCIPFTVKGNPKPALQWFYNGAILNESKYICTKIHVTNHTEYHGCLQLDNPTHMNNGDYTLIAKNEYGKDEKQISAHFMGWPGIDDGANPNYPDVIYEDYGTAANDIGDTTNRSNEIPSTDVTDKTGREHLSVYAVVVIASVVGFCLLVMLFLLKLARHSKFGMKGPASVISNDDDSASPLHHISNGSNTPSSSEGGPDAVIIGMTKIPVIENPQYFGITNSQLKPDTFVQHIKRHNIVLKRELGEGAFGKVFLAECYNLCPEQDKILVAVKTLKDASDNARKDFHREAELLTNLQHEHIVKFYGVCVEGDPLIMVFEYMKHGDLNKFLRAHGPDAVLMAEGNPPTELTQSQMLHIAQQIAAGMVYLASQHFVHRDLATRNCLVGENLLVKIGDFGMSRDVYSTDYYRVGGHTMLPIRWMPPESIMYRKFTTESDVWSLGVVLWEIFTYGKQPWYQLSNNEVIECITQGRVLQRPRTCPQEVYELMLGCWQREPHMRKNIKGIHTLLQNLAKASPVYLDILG

Structure (SMILES)	residual activity [1] [%]	residual activity [2] [%]	residual activity [3] [%]	residual activity [4] [%]	residual activity [5] [%]	residual activity [6] [%]	residual activity [7] [%]	residual activity [8] [%]	residual activity [9] [%]	residual activity [10] [%]
COc1cc2c(Oc3ccc(-c4nc5ccccc5s4)cc3)ncnc2cc1OCCCN1CCN(C)CC1	85	84	82	87	19	95	53	96	98	113
COc1cc2c(Oc3ccc(-c4nc5ccccc5s4)cc3F)ncnc2cc1OCCCN1CCN(C)CC1	86	103	94	79	18	102	57	87	116	83
COc1cc2c(Oc3ccc(-c4nc5ccccc5s4)cc3)ncnc2cc1OCCCN1CCCC1	97	100	97	94	48	97	78	105	97	81
